Test results: ChEMBL document CHEMBL1136601, “Substituted aminopyridines as potent and selective phosphodiesterase-4 inhibitors” (Bioorg Med Chem Lett, 2003)
The source made the active and inactive calls. No cut-off for these calls is given here.

Key:
Homo sapiens = organism: Homo sapiens; experiment: Inhibition of LPS-induced TNF-alpha production in human whole blood.; format: functional, organism-based
[1] = biological target: 3',5'-cyclic-AMP phosphodiesterase 4A (Homo sapiens, UniProt P27815); experiment: Inhibitory activity against human PDE4A expressed isoform using construct representing the common region of spliced variants as GST-fusion protein in Sf9 cells.
3',5'-cyclic-AMP phosphodiesterase 4A, sequence (P27815 whole entry, looked up, stated change not applied, the tested form may be a part, canonical isoform): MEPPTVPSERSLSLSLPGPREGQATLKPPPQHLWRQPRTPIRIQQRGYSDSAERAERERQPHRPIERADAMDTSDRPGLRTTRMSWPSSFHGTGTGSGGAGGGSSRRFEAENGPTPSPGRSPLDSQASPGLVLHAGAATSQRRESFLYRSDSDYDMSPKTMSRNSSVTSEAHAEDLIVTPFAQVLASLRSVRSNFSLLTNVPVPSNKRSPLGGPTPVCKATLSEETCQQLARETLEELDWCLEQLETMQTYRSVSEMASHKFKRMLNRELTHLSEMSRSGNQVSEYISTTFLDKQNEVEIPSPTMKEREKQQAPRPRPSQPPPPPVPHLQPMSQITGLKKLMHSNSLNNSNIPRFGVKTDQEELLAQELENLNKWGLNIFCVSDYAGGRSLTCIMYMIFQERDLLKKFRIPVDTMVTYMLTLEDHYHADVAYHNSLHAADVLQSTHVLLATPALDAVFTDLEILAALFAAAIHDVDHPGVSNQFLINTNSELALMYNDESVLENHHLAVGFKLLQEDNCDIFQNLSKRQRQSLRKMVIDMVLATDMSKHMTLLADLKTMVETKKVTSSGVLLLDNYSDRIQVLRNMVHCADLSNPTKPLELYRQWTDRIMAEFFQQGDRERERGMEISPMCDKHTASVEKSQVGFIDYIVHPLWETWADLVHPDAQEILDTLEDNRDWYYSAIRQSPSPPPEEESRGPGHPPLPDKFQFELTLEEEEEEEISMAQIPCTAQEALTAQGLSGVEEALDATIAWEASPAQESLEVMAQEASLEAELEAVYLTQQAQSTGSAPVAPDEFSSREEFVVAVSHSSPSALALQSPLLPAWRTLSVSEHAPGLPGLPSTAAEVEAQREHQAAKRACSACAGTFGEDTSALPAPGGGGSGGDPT

[2] = Oral bioavailability (dose 20 mg/kg p.o.); format: ADME, organism-based; conditions: rat, in vivo
[3] = Cmax in rats after 20 mg/kg oral dose; format: ADME, organism-based; set-up: dose 20 mg/kg, route oral; conditions: rat, in vivo
[4] = Half life period after intravenous administration at 5 mg/kg in rat; format: ADME, organism-based; set-up: dose 5 mg/kg, route intravenous; conditions: in vivo
Cavia porcellus [5] = experiment: In vivo inhibition of ovalbumin-induced bronchoconstriction in conscious guinea pig at 1 mg/kg ip dose 30 hr prior to challenge; format: functional; conditions: route intraperitoneal
Ovis aries [6] = experiment: In vivo inhibition of ovalbumin-induced bronchoconstriction in sheep early phase at 20 mg/kg ip dose 30 hr prior to challenge; format: functional; conditions: route intraperitoneal
Ovis aries [7] = experiment: In vivo inhibition of ovalbumin-induced bronchoconstriction in sheep late phase at 20 mg/kg ip dose 2 hr prior to challenge; format: functional; conditions: route intraperitoneal
[8] = Cmax in ferrets after 30 mg/kg oral dose; format: ADME, organism-based, Mustela putorius furo; set-up: dose 30 mg/kg, route oral; conditions: ferret, in vivo
Mustela putorius furo = experiment: Emesis in ferrets at 30 mg/kg oral dose; format: functional
Cavia porcellus [9] = experiment: In vivo inhibition of ovalbumin-induced bronchoconstriction in conscious guinea pig at 1 mg/kg ip dose 4 hr prior 4 hr to challenge; format: functional; conditions: route intraperitoneal
Ovis aries [10] = experiment: In vivo inhibition of ovalbumin-induced bronchoconstriction in sheep early phase at 2.0 mg/kg ip dose 4 hr prior to challenge; format: functional; conditions: route intraperitoneal
Ovis aries [11] = experiment: In vivo inhibition of ovalbumin-induced bronchoconstriction in sheep late phase at 2.0 mg/kg ip dose 2 hr prior to challenge; format: functional; conditions: route intraperitoneal

Compound | IC50 (Homo sapiens; Homo sapiens, Blood) | IC50 [1] | other results
O=C(Cc1ccccc1)Nc1ccc(C(Cc2cc[n+]([O-])cc2)c2ccc(OC(F)F)c(OC(F)F)c2)cn1 (stereo not given) | 3800 nM | 7.8 nM | 
CN(CCc1ccccc1)c1ccc(C(Cc2cc[n+]([O-])cc2)c2ccc(OC(F)F)c(OC(F)F)c2)cn1 (stereo not given) | 800 nM | 5.8 nM | 
CCN(c1ccc(C(Cc2cc[n+]([O-])cc2)c2ccc(OC(F)F)c(OC(F)F)c2)cn1)[C@H](C)c1ccccc1 (stereo not given in full) | 200 nM | 0.6 nM | 
CN(Cc1ccc2ccccc2c1)c1ccc(C(Cc2cc[n+]([O-])cc2)c2ccc(OC(F)F)c(OC(F)F)c2)cn1 (stereo not given) | 300 nM | 1.5 nM | 
CC(=O)Nc1ccc(C(Cc2cc[n+]([O-])cc2)c2ccc(OC(F)F)c(OC(F)F)c2)cn1 (stereo not given) | 1800 nM | 33 nM | 
CN(Cc1ccccc1)c1ccc(C(Cc2cc[n+]([O-])cc2)c2ccc(OC(F)F)c(OC(F)F)c2)cn1 (stereo not given) | 300 nM | 1.2 nM | 
CC(C)(Nc1ccc(C(Cc2cc[n+]([O-])cc2)c2ccc(OC(F)F)c(OC(F)F)c2)cn1)c1ccccc1 (single isomer, unassigned; (-)) |  | 0.8 nM | bioavailability [2]: 100%; Cmax [3]: 2.4 µM; half-life [4]: 2 h; Efficacy (Cavia porcellus [5]): 54%; IC50 (Homo sapiens): 100 nM; Efficacy (Ovis aries [6]): 64%; Efficacy (Ovis aries [7]): 97%
CC(C)N(Cc1ccccc1)c1ccc(C(Cc2cc[n+]([O-])cc2)c2ccc(OC(F)F)c(OC(F)F)c2)cn1 (stereo not given) | 1000 nM | 9.3 nM | 
CC(C)(Nc1ccc(C(Cc2cc[n+]([O-])cc2)c2ccc(OC(F)F)c(OC(F)F)c2)cn1)c1ccccc1 (stereo in doubt; (+)-3n) |  | 23 nM | IC50 (Homo sapiens): 10000 nM
CC(C)Nc1ccc(C(Cc2cc[n+]([O-])cc2)c2ccc(OC(F)F)c(OC(F)F)c2)cn1 (stereo not given) | 800 nM | 12 nM | 
CC(C)(C)N(Cc1ccccc1)c1ccc(C(Cc2cc[n+]([O-])cc2)c2ccc(OC(F)F)c(OC(F)F)c2)cn1 (stereo not given) | 17000 nM | 18 nM | 
[O-][n+]1ccc(CC(c2ccc(NCc3ccccc3)nc2)c2ccc(OC(F)F)c(OC(F)F)c2)cc1 (stereo not given) | 400 nM | 1.2 nM | 
Cc1ccc(CCNc2ccc(C(Cc3cc[n+]([O-])cc3)c3ccc(OC(F)F)c(OC(F)F)c3)cn2)cc1 (stereo not given) | 800 nM | 2.3 nM | 
Cc1c[n+]([O-])ccc1CC(c1ccc(C(O)(C(F)(F)F)C(F)(F)F)cc1)c1ccc(OC(F)F)c(OC(F)F)c1 (stereo not given) | 300 nM | 1.3 nM | 
O=S(=O)(Nc1ccc(C(Cc2cc[n+]([O-])cc2)c2ccc(OC(F)F)c(OC(F)F)c2)cn1)c1ccccc1 (stereo not given) | 34000 nM | 16 nM | 
CN(c1ccccc1)c1ccc(C(Cc2cc[n+]([O-])cc2)c2ccc(OC(F)F)c(OC(F)F)c2)cn1 (stereo not given) | 2100 nM | 0.8 nM | 
Nc1ccc(C(Cc2cc[n+]([O-])cc2)c2ccc(OC(F)F)c(OC(F)F)c2)cn1 (stereo not given) | 1600 nM | 31 nM | 
[O-][n+]1ccc(CC(c2ccc(N3CCCC3)nc2)c2ccc(OC(F)F)c(OC(F)F)c2)cc1 (stereo not given) |  | 31 nM | 
[O-][n+]1ccc(CC(c2ccc(C(O)(C(F)(F)F)C(F)(F)F)cc2)c2ccc(OC(F)F)c(OC(F)F)c2)cc1 (stereo not given) |  | 4.2 nM | bioavailability [2]: 70%; Cmax [8]: 16 µM; Emesis_ED (Mustela putorius furo): inactive; Cmax [3]: 3.5 µM; half-life [4]: > 24 h; Efficacy (Cavia porcellus [9]): 58%; Efficacy (Ovis aries [10]): 85%; Efficacy (Ovis aries [11]): 95%
C[C@H](c1ccccc1)N(C)c1ccc(C(Cc2cc[n+]([O-])cc2)c2ccc(OC(F)F)c(OC(F)F)c2)cn1 (stereo not given in full) | 700 nM | 0.3 nM | 
CCNC(=O)Nc1ccc(C(Cc2cc[n+]([O-])cc2)c2ccc(OC(F)F)c(OC(F)F)c2)cn1 (stereo not given) | 1700 nM | 8.3 nM | 
CCN(Cc1ccccc1)c1ccc(C(Cc2cc[n+]([O-])cc2)c2ccc(OC(F)F)c(OC(F)F)c2)cn1 (stereo not given) | 400 nM | 2.3 nM | 
CC(C)(Nc1ccc(C(Cc2cc[n+]([O-])cc2)c2ccc(OC(F)F)c(OC(F)F)c2)cn1)c1ccccc1 (stereo in doubt; 3n) |  | 1.6 nM | IC50 (Homo sapiens): 200 nM
C[C@@H](Nc1ccc(C(Cc2cc[n+]([O-])cc2)c2ccc(OC(F)F)c(OC(F)F)c2)cn1)c1ccccc1 (stereo not given in full) | 900 nM | 1.7 nM | 
